Holding throughout (assay type): cell-based
The subject of series [1] is Respiratory syncytial virus (RSV) type A, strain A2 (ATCC VR-1540). In words: dNHBE assay: RSV virus yield reduction (EC90). To be noted: human respiratory syncytial virus, RSV (A2) in dNHBE cells; concentration reducing virus yield by 1 log10; mean of at least two experiments. As for the experimental part:
(§1) Differentiated normal human bronchial epithelial (dNHBE) cells were grown on 6 mm mesh disks in transwell inserts to approximately 1.2×10^6 cells/disk and disks were transferred to individual wells of a 6-well plate. 1 mL of proprietary culture medium was added to the basolateral side of the cells and the apical side was exposed to a humidified 95% air/5% CO2 environment. Cells were cultured at 37° C. for one day and then the mucin layer was removed from the apical side of the cells by repeated (3×) washing with 500 μL 30 mM HEPES buffered saline solution and culture medium on the basal side was replenished.
Respiratory syncytial virus (RSV) type A, strain A2 (ATCC VR-1540), previously passaged in MA-104 cells to make working stock cultures, was diluted 1/10 in medium before infection, using a multiplicity of infection (MOI) of ≤0.03 CCID50 per cell.
(§2) Various concentrations of test compounds in medium were applied in duplicate to the apical (140 μL) and basal sides (1 mL) for a 1 hour pre-treatment, followed by addition of 140 μL of virus inoculum to each cell insert on the apical side. The viral inoculum and treatments were removed after 2 hours. Control cells were treated with placebo (culture medium only). Following infection, the apical medium was removed and the basal side was replaced with fresh compound in medium. The cells were maintained at the air-liquid interface, and cell culture medium on the basal side was replaced daily with fresh medium containing test compound. After 4 days, the liquid was removed from the basal side and discarded and virus released into the apical compartment was harvested by the addition of 500 μL of culture medium. The medium was thoroughly mixed, then removed, diluted 1:1 with 40% sucrose and stored at ≤−80° C.
To determine the virus titer from each treated cell culture, MA-104 cells were seeded in 96-well plates and grown overnight (37° C.) to confluence. Samples containing virus were diluted in 10-fold increments in infection medium and 200 μL of each dilution transferred into respective wells of a 96-well microtiter plate. Four microwells were used for each dilution to determine 50% viral endpoints. After 7 days of incubation, each well was scored positive for virus if any cytopathic effect was observed as compared with the uninfected control. The virus dose that was able to infect 50% of the cell cultures (CCID50 per 0.1 mL) was calculated by the Reed-Muench method. This was repeated in duplicate for each test sample, so that values reported are an average of 2 independent CCID5o determinations. Untreated, uninfected cell controls were tested as negative controls. Statistical differences in the titers were evaluated with a one-way analysis of variance (ANOVA) followed by Dunnett's multiple comparisons test compared with the untreated virus controls.
(§3) Concentrations of test compounds that reduced virus yield by 1 log10 (90% effective concentration; EC90) were calculated by regression analysis. The reported EC90 value is the mean of at least two experiments. Potential toxicity of the test compounds was evaluated microscopically.

In series [2] the test system is Differentiated normal human bronchial epithelial (dNHBE) cells. Put plainly: dNHBE assay: toxicity evaluated microscopically. Also on record: unit not given here. As for the experimental part:
as §1, §2, §3

In series [3] the test system is respiratory syncytial virus A2 (ATCC VR-1540). Put plainly: Cytopathic effect assay with RSV A2 in MA-104 cells. The settings on record: human respiratory syncytial virus, MA104, CPE inhibition, neutral red. As to the method:
Test compounds were dissolved in DMSO and then prepared in eight half-log dilutions in MEM medium with 50 μg/mL gentamicin and 2% FBS (MA-104 cells only). Each dilution was added to 5 wells of a 96-well plate with 80-100% confluent cells (either MA-104 cells or HEp-2 cells). Three wells of each dilution were infected with respiratory syncytial virus A2 (ATCC VR-1540) and two wells remained uninfected as toxicity controls. After maximum cytopathic effect (CPE) was observed microscopically in untreated virus control wells, plates were stained with neutral red dye for approximately 2 hours, then supernatant dye was removed and the incorporated dye was extracted in 50:50 Sorensen citrate buffer/ethanol and read on a spectrophotometer. Optical density values were normalized based on cell and virus controls, then the concentration of test compound required to inhibit CPE by 50% (EC50) was calculated by regression analysis. The reported EC50 value is the mean of at least two experiments. The concentration of compound that caused 50% CPE in the absence of virus was similarly calculated to determine cytotoxicity (CC50).

Series [4] has as its system human bone marrow progenitor cells (BFU-E). In words: Human bone marrow progenitor cell assay, BFU-E. The settings on record: BFU-E-specific culture, 14-day incubation, colony counts; read-out: Bone Marrow Stem Cell IC50 BFU-E. As to the method:
(§4) Select compounds were tested in an in vitro selectivity study with human bone marrow progenitor cells. Fresh human bone marrow progenitor cells (Invitrogen) suspended in either BFU-E or GM-CSF-specific culture medium were added, at 10^5 cells/well, to triplicate serial dilutions of TA in 6-well plates. After 14-day incubations, colony counts were used to determine […] values. BFU-E colonies were confirmed using the benzidene technique. No cytotoxicity was observed from any of the tested compounds.

Series [5] relates to human bone marrow progenitor cells (CFU-GM). Put plainly: Human bone marrow progenitor cell assay, CFU-GM (GM-CSF-specific culture). To be noted: 14-day incubation, colony counts, read-out: Bone Marrow Stem Cell IC50 CFU-GM. As for the experimental part:
as §4

A further series relates to iPS cardiomyocytes. In words: iPS cardiomyocyte assay (XTT viability). The settings on record: 72 h, 3 days incubation, XTT staining. As for the experimental part: Select compounds were tested in an in vitro selectivity study with iPS cardiomyocytes. iPS cardiomyocytes (Cellular Dynamics) were seeded in microliter plates at 1.5×10^4 cells per well. After 48-hr incubation, cells were washed and maintenance medium containing 30 serially diluted TA was added in triplicate. After incubating for an additional 3 days, cellviability was measured by staining with XTT and CC50 values were calculated. No cytotoxicity was observed from any of the tested compounds.
In general terms: Tetrazolium dyes change colour on reduction, which living cells bring about.

Where only a bound is given, the exact number is not on record here.

As usually defined, the EC90 is the point of the concentration-response curve where the effect stands at 90%. The term EC50 denotes the concentration needed to bring the measured effect to its halfway point. In series [1], `CC(C)OC(=O)[C@H](C)NP(=O)(OC[C@@]1(CCl)O[C@@H](n2ccc(N)nc2=O)[C@H](F)C1O)Oc1ccccc1` (stereo in doubt) [Z] showed a concentration for an effect of 90% (EC90) of 2 µM. The Visual toxicity in series [2] is recorded as >177. The concentration giving a half-maximal response (EC50) in series [3] was > 177 µM.
The corresponding values for `CN(C)c1nc(N)nc2c1ncn2[C@@H]1O[C@](C)(CO)[C@@H](O)[C@H]1F` [A, (2R,3R,4R,5R)-5-(2-Amino-6-(dimethylamino)-9H-purin-9-yl)-4-fluoro-2-(hydroxymethyl)-2-methyltetrahydrofuran-3-ol] are 142 µM, >306 and > 306 µM.
The term IC50 denotes the concentration at which inhibition is half-maximal. Regarding `Cc1cn([C@H]2C[C@H](N=[N+]=[N-])[C@@H](CO)O2)c(=O)[nH]c1=O` [AZT, reference compound], the IC50 in series [4] was determined as 2.59 µM; in series [5], 4.56 µM.
The molecule `CC(C)OC(=O)[C@H](C)NP(=O)(OC[C@@]1(C)O[C@@H](n2cnc3c(N(C)C)nc(N)nc32)[C@H](F)[C@@H]1O)Oc1ccccc1` (stereo partly drawn) [B, (2S)-Isopropyl 2-(((((2R,3R,4R,5R)-5-(2-amino-6-(dimethylamino)-9H-purin-9-yl)-4-fluoro-3-hydroxy-2-methyltetrahydrofuran-2-yl)methoxy)(phenoxy)phosphoryl)-amino) propanoate] gave an EC90 in series [1] of 5.9 µM. Besides, the Visual toxicity in series [2] is recorded as >167. In series [3], the EC50 was < 168 µM.
With `CN(C)c1nc(N)nc2c1ncn2[C@@H]1O[C@@](CO)(CCl)[C@@H](O)[C@H]1F` [Compound K, (2R,3R,4R,5R)-5-(2-Amino-6-(dimethylamino)-9H-purin-9-yl)-2-(chloromethyl)-4-fluoro-2-(hydroxymethyl)tetrahydrofuran-3-ol], the concentration for an effect of 90% (EC90) in series [1] is 74.8 µM. The Visual toxicity in series [2] was >277. In series [3], the EC50 is > 225 µM.
The corresponding values for `CC(C)OC(=O)[C@H](C)NP(=O)(OC[C@@]1(CCl)O[C@@H](n2cnc3c(N(C)C)nc(N)nc32)[C@H](F)[C@@H]1O)Oc1ccccc1` (stereo partly drawn) [Compound L, (2S)-Isopropyl 2-(((((2R,3R,4R,5R)-5-(2-amino-6-(dimethylamino)-9H-purin-9-yl)-2-(chloromethyl)-4-fluoro-3-hydroxytetrahydrofuran-2-yl)methoxy)(phenoxy)phosphoryl)amino)propanoate] are 13.5 µM, 158 and > 159 µM.
Turning to `CNc1nc(N)nc2c1ncn2[C@@H]1O[C@@](CO)(CCl)[C@@H](O)[C@H]1F` [Compound M, (2R,3R,4R,5R)-5-(2-Amino-6-(methylamino)-9H-purin-9-yl)-2-(chloromethyl)-4-fluoro-2-(hydroxymethyl)tetrahydrofuran-3-ol], the EC90 in series [1] worked out at 2.9 µM. Further, the Visual toxicity in series [2] is given as >288.
The corresponding values for `CNc1nc(N)nc2c1ncn2[C@@H]1O[C@](CCl)(COP(=O)(N[C@@H](C)C(=O)OC(C)C)Oc2ccccc2)[C@@H](O)[C@H]1F` (stereo partly drawn) [Compound N, (2S)-Isopropyl 2-(((((2R,3R,4R,5R)-5-(2-amino-6-(methylamino)-9H-purin-9-yl)-2-(chloromethyl)-4-fluoro-3-hydroxytetrahydrofuran-2-yl)methoxy)(phenoxy)-phosphoryl)amino)propanoate] are 0.83 µM and >162.
In turn, `CC[C@]1(CO)O[C@@H](n2cnc3c(NC)nc(N)nc32)[C@H](F)[C@@H]1O` [Compound Q, (2R,3R,4R,5R)-5-(2-Amino-6-(methylamino)-9H-purin-9-yl)-2-ethyl-4-fluoro-2-(hydroxymethyl)tetrahydrofuran-3-ol] gave an EC90 in series [1] of 7.3 µM. Besides, the Visual toxicity in series [2] is reported as >306.
The corresponding values for `CC[C@]1(COP(=O)(N[C@@H](C)C(=O)OC(C)C)Oc2ccccc2)O[C@@H](n2cnc3c(NC)nc(N)nc32)[C@H](F)[C@@H]1O` (stereo partly drawn) [Compound R, (2S)-Isopropyl 2-(((((2R,3R,4R,5R)-5-(2-amino-6-(methylamino)-9H-purin-9-yl)-2-ethyl-4-fluoro-3-hydroxytetrahydrofuran-2-yl)methoxy)(phenoxy)-phosphoryl)amino) propanoate] are 2.3 µM and >167.
With `CN(C)c1nc(N)nc2c1ncn2[C@@H]1O[C@](C)(CO)[C@@H](O)[C@@H]1F` [Compound S], in series [1], the EC90 is > 300 µM. Moreover, in series [2], the Visual toxicity is listed as >307. In series [3], the EC50 was > 306 µM.
As to `CC[C@]1(CO)O[C@@H](n2cnc3c(N(C)C)nc(N)nc32)[C@@H](F)[C@@H]1O` [Compound U, (2R,3R,4S,5R)-5-(2-Amino-6-(dimethylamino)-9H-purin-9-yl)-2-ethyl-4-fluoro-2-(hydroxymethyl)tetrahydrofuran-3-ol], the EC90 in series [1] was > 294 µM. Besides, the Visual toxicity in series [2] is recorded as >294. In addition, the EC50 in series [3] was > 294 µM.
The molecule `CC[C@]1(COP(=O)(N[C@@H](C)C(=O)OC(C)C)Oc2ccccc2)O[C@@H](n2cnc3c(N(C)C)nc(N)nc32)[C@@H](F)[C@@H]1O` (stereo partly drawn) [Compound V, (2S)-Isopropyl 2-(((((2R,3R,4S,5R)-5-(2-amino-6-(dimethylamino)-9H-purin-9-yl)-2-ethyl-4-fluoro-3-hydroxytetrahydrofuran-2-yl)methoxy)(phenoxy)phosphoryl)-amino) propanoate] showed an EC90 in series [1] of 44.8 µM. Moreover, the Visual toxicity in series [2] is given as 164. Besides, the 50% effective concentration (EC50) in series [3] was > 164 µM.
`COc1cc2nc(N3CCN(C(=O)C4COc5ccccc5O4)CC3)nc(N)c2cc1OC` (stereo not shown) [Doxazosin, reference compound] displayed an IC50 in the series with iPS cardiomyocytes of 12.5 µM.
Turning to `CC(C)C(=O)Nc1nc(N(C)C)c2ncn([C@@H]3O[C@@](CO)(CCl)[C@@H](O)[C@H]3F)c2n1` [X], in series [3], the EC50 is > 232 µM.
On the same count and under the same terms, for `CC(C)OC(=O)[C@H](C)NP(=O)(OC[C@@]1(CCl)O[C@@H](n2cnc3c(N(C)C)nc(NC(=O)C(C)C)nc32)[C@H](F)[C@@H]1O)Oc1ccccc1` (stereo partly shown) [Y] the value was > 142 µM.
